Laboratory results from PMC12376128, “In vitro and In Vivo Drug Metabolism Analysis of BPI-460372 - A Covalent TEAD1/3/4 Inhibitor” (Current Drug Metabolism, 2025).

Experiments:
CYP3A4 = experiment: Metabolic stability in HLMs with or without specific CYP inhibitor (ketoconazole); format: in vitro ADME, human; settings: HLMs 1 mg protein/mL, substrate 1 μM, ketoconazole 20 µM
Description: Before starting the experiments, the HLMs were thawed gently on ice. Metabolic stability incubations were performed at 37 °C. The incubations contained 100 mM phosphate buffer saline (PBS, pH 7.4), HLMs (1 mg protein·mL^-1), dimethyl sulfoxide (DMSO, blank control) or a selective CYP inhibitor, and BPI-460372 or positive control substrates (final incubation concentration, 1 μM). The incubation process started with the addition of NADPH (1 mM final concentration) after a 5-minute preincubation period. The chemical inhibitors were as follows: a-naphthoflavone (2 µM) for CYP1A2, ticlopidine (20 µM) for 2B6, quercetin (20 µM) for CYP2C8, sulfaphenazole (20 µM) for CYP2C9, ticlopidine (200 µM) for CYP2C19, quinidine (20 µM) for CYP2D6, and ketoconazole (20 µM) for CYP3A [9]. Aliquots were maintained in acetonitrile containing internal standard (IS) at various time points, such as 0 min, 5 min, 10 min, 20 min, 30 min, and 60 min. All incubations were performed in triplicate, and the concentration in the supernatant was determined by liquid chromatography-tandem mass spectrometry (LC-MS/MS).
The elimination rate constant k (min^-1) was obtained by linear regression from the natural logarithm of the […] of the parent drug and the incubation time. The inhibition rate was calculated using equation 1 [10]: […]

[1] = Metabolite identification in dog plasma; format: in vivo, beagle dogs; settings: oral 8 mg/kg BPI-460372, average of male and female pooled samples
How it was run: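 Pooled sex-specific samples from SD rats: plasma after 12 mg/kg, urine, feces and bile (collected over 0-48 h) after 6 mg/kg; beagle dog plasma after 8 mg/kg. Acetonitrile extraction (urine centrifuged only), dried, redissolved in acetonitrile/water 20:80, analysed by UHPLC-Orbitrap-HRMS.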

rat hepatocytes = experiment: Metabolism and metabolite formation in hepatocytes; format: in vitro ADME, SD rat; settings: SD rat hepatocytes, 10 µM BPI-460372, 4 h incubation
Description: All the samples were duplicates.

[2] = tested on: cysteine S-conjugate β-lyase; experiment: Effect of cysteine S-conjugate β-lyase inhibitor AOAA on the metabolism of BPI-460372 (rat urine); settings: 20 mg/kg BPI-460372 + 100 mg/kg AOAA, once daily 21 days, urine 0-48 h on day 21
Description: To investigate the effect of cysteine S-conjugate β-lyase on the metabolism of BPI-460372, SD rats were treated with 20 mg/kg BPI-460372 alone (n=3, male) or 20 mg/kg BPI-460372 coadministration with 100 mg/kg cysteine S-conjugate β-lyase inhibitor AOAA (n=3, male), once daily for 21 consecutive days. On day 21, urine samples were collected at 0-8, 8-24 and 24-48 h. The same percentage of urine samples from each rat was taken at these three time intervals and mixed. The samples were analyzed by LC-MS/MS and then semi-quantified using the peak area ratio of analyte versus IS.

4-week toxicity study = format: in vivo; settings: rats
CYP2D6 = CYP2D6 (Homo sapiens, UniProt P10635); experiment: Metabolic stability in recombinant human CYP isoenzymes; format: in vitro ADME; parameters: purchased Cypex Ltd. (Dundee, UK); settings: rCYP2D6 100 pmol P450/mL, 1 µM
Sequence of CYP2D6 (P10635 whole entry, canonical isoform): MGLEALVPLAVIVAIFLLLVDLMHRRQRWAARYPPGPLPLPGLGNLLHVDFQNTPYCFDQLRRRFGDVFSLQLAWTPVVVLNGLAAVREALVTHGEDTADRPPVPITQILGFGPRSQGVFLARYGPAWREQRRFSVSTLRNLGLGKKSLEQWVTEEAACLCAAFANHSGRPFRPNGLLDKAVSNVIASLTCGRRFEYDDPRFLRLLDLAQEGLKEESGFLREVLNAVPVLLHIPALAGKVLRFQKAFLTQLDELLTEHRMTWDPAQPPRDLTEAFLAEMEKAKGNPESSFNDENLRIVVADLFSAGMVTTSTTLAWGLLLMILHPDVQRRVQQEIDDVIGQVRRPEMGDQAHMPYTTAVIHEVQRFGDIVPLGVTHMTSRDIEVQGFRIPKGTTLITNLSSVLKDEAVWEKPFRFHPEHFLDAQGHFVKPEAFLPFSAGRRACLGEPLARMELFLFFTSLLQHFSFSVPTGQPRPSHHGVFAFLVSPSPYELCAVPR
Description: (§1) To identify the specific isoform that participates in the metabolism of BPI-460372, 1 µM BPI-460372 or positive control substrates were mixed with recombinant human CYP1A2, 2B6, 2C8, 2C9, 2C19, 2D6 or 3A4 (100 pmol P450·mL^-1), and the reaction was started by the addition of NADPH (1 mM final concentration) after 5-minute preincubation at 37°C. Aliquots were maintained in acetonitrile containing IS at different time points at 0 min, 5 min, 10 min, 20 min, 30 min, and 60 min. All incubations were performed in triplicate, and the concentration of the supernatant was determined by LC-MS/MS.
(§2) A substrate depletion approach was employed to determine the intrinsic clearance (CLint (rCYPj)) for each isoform. The contribution of each isoform was estimated using equations 2 and 3. CYPj abundance was evaluated as the abundance (CYPj) of each isoform in HLMs (pmol/mg protein).

CYP1A2 = molecular target: T1, CYP1A2 (Homo sapiens, UniProt P05177); experiment: as above; format: in vitro ADME; parameters: purchased Cypex Ltd. (Dundee, UK); settings: rCYP1A2 100 pmol P450/mL, 1 µM
T1 sequence (P05177 1-516): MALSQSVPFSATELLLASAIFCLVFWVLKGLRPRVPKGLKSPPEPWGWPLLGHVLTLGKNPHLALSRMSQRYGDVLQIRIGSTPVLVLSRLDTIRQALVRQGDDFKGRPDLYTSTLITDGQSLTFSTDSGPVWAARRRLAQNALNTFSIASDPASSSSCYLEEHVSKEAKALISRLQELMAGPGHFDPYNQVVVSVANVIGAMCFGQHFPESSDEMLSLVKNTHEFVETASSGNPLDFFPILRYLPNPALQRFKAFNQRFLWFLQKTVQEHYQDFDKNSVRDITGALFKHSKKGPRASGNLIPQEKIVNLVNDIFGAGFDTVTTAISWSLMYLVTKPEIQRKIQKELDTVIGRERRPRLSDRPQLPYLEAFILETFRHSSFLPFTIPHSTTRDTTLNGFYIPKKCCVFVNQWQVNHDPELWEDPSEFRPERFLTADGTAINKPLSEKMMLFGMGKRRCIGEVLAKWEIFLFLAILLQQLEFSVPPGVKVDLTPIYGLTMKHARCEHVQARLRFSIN
Description: as §1, §2

CYP2C9 = CYP2C9 (Homo sapiens, UniProt P11712); experiment: as above; format: in vitro ADME; parameters: purchased Cypex Ltd. (Dundee, UK); settings: rCYP2C9 100 pmol P450/mL, 1 µM
Sequence of CYP2C9 (P11712 whole entry): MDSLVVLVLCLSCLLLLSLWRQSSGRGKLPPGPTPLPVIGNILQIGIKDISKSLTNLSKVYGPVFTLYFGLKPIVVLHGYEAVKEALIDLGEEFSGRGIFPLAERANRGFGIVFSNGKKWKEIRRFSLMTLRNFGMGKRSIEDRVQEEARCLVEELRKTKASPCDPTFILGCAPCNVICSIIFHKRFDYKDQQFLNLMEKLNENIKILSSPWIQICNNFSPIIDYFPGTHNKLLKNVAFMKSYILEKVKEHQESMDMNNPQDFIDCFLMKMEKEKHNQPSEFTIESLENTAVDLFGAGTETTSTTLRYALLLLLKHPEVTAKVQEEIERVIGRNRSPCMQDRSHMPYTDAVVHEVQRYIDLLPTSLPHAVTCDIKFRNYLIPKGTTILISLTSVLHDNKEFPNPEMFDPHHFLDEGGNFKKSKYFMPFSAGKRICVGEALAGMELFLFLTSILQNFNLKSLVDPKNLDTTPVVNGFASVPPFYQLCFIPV
Description: as §1, §2

Stability in plasma = format: in vitro ADME; settings: rat plasma, 37°C, 4 h

**Q.** Which results are given for `C=C(F)C(=O)N1CC(n2c(=O)n(-c3ccc(C(F)(F)F)cc3)c3nccnc32)C1` [BPI-460372]?
**A.** Inhibition Rate (CYP3A4): 9.1%; Relative abundance of MS peak areas, Dog Plasma 0-48 h [1]: 30.93%; UV (314 nm) Peak Areas Relative Abundance (rat hepatocytes): 70.87%; Area ratio in rat urine, mean (%CV) [2]: 1.48 (69); Main target organs (4-week toxicity study): kidney; Contribution (CYP2D6): 43.6%; Contribution (CYP1A2): 13.1%; Contribution (CYP2C9): 6.3%; Stability in plasma (Stability in plasma): stable
